Measurements taken from patent US7816384B2, “Method for treating a demyelinating condition” (priority 2000, dated 2010).

What was measured:
EAE = conditions: NBQX treatment in EAE; cited from earlier work
[1] = tested on: adoptive-transfer EAE in female SJL mice; assay: Adoptive-transfer EAE, treatment with amlodipine (Example 1); format: in vivo, mouse; conditions: two representative animals per group at sampling; clinical index 0-5; control group 2.8
Experimental: FIG. 1 illustrates the clinical course of adoptive-transfer EAE and the effect of treatment with amlodipine. SJL mice were injected with 3×10^7 MBP-activated cells. Starting from Day 5 post-immunization, mice were treated with amlodipine (30 μg as one daily subcutaneous injection) or vehicle (PBS), until Day 13 (Day 9 of treatment). Data represent mean±s.e.m. differences, at respective time-points, between the vehicle-treated group and the amlodipine-treated group. *=p<0.05; **=p<0.01 (students' unpaired, two-tailed t-test); n=8 per group. Induction of Experimental Autoimmune Encephalomyelitis (EAE). Adoptive-transfer EAE was induced in female SJL mice as described ([…] et al., 1998). In brief, lymph node cells were obtained 10 days after myelin basic protein/Complete Freund's Adjuvant immunization. Cells were cultured for 4 days with 50 μg/ml of myelin basic protein, then 3×10^7 cells/mouse were injected into syngeneic mice via tail veins. Onset of disease occurred after 7-9 days. Animals were graded according to a standard clinical index (0-5). Five days after immunization, animals began treatments with one daily injection of 200 μl of vehicle (PBS), or 30 μg of amlodipine in 200 μl of PBS. Neuropathology. At selected time-points, mice from the control and treated groups were perfused with PBS or glutaraldehyde, and the CNS was prepared for frozen or 1-μm epoxy sections, respectively. […]

[2] = tested on: AT-EAE in female SJL/J mice; assay: Adoptive-transfer EAE (AT-EAE), treatment with bepridil or nitrendipine (Example 2); format: in vivo, mouse; conditions: for difference in average disease scores between vehicle and bepridil groups: bepridil 3 mg/kg from day 3 p.t. (n=14 vs 15); for average difference in disease scores vs vehicle: average over days 13-20 p.t.
[3] = bepridil 3 mg/kg s.c. daily from day 0

SMILES: NS(=O)(=O)c1cccc2c1c([N+](=O)[O-])cc1[nH]c(=O)c(=O)[nH]c12 [NBQX, 1,2,3,4-tetrahydro-6-nitro-2,3-dioxo-benzoquinoxaline-7-sulfonamide]
- course of disease, loss of oligodendrocytes and axonal damage (EAE): significantly ameliorated the course of the disease and reduced loss of oligodendrocytes and axonal damage

SMILES: CCOC(=O)C1=C(COCCN)NC(C)=C(C(=O)OC)C1c1ccccc1Cl (stereo not shown) [amlodipine, 3-ethyl-5-methyl-2-(2-aminoethoxymethyl)-4-(2-chlorophenyl)-1,4-dihydro-6-methyl-3,5-pyridinedicarboxylate]
- average clinical score [1]: 1.3

SMILES: CC(C)COCC(CN(Cc1ccccc1)c1ccccc1)N1CCCC1 (stereo not shown) [bepridil]
- difference in average disease scores between vehicle and bepridil groups ([2]; day 13 p.t.): 1.07 points
- difference in average disease scores between vehicle and bepridil groups ([2]; day 14 p.t.): 1.20 points
- difference in average disease scores between vehicle and bepridil groups ([2]; day 15 p.t.): 0.99 points
- difference in average disease scores between vehicle and bepridil groups ([2]; day 16 p.t.): 1.18 points
- average difference in disease scores between vehicle and bepridil groups ([2]; bepridil 3 mg/kg from day 3 p.t., average over days 13-16 p.t.): −1.11±0.05 points
- delay of overt disease onset compared with vehicle [2, 3]: more than 5 days
- average difference in disease scores vs vehicle [2, 3]: 1.66±0.06 points
- average difference in disease scores vs vehicle ([2]; bepridil 3 mg/kg s.c. daily from day 0, listed as Bepridil): −1.66±0.06 points
- reduction of daily average disease score vs vehicle ([2]; bepridil 3 mg/kg s.c. daily from day 0, day 13 p.t.): 1.8 points
- reduction of daily average disease score vs vehicle ([2]; bepridil 3 mg/kg s.c. daily from day 0, day 14 p.t.): 2.0 points
- reduction of daily average disease score vs vehicle ([2]; bepridil 3 mg/kg s.c. daily from day 0, day 15 p.t.): 1.45 points
- reduction of daily average disease score vs vehicle ([2]; bepridil 3 mg/kg s.c. daily from day 0, day 16 p.t.): 1.65 points
- reduction of daily average disease score vs vehicle ([2]; bepridil 3 mg/kg s.c. daily from day 0, day 17 p.t.): 1.60 points
- reduction of daily average disease score vs vehicle ([2]; bepridil 3 mg/kg s.c. daily from day 0, day 18 p.t.): 1.60 points
- reduction of daily average disease score vs vehicle ([2]; bepridil 3 mg/kg s.c. daily from day 0, day 19 p.t.): 1.70 points
- reduction of daily average disease score vs vehicle ([2]; bepridil 3 mg/kg s.c. daily from day 0, day 20 p.t.): 1.5 points

SMILES: CCOC(=O)C1=C(C)NC(C)=C(C(=O)OC)C1c1cccc([N+](=O)[O-])c1 (stereo not shown) [nitrendipine, ethyl methyl-1,4-dihydro-2,6-dimethyl-4-(m-nitrophenyl)-3,5-pyridinedicarboxylate]
- average amelioration of clinical impairment vs vehicle ([2]; nitrendipine 2.5 mg/kg s.c. daily from day 0, average over days 15-20 p.t.): −1.77±0.11 points
- amelioration of clinical impairment (disability score) vs vehicle ([2]; nitrendipine 2.5 mg/kg s.c. daily from day 0, day 15 p.t.): 1.5 points
- amelioration of clinical impairment (disability score) vs vehicle ([2]; nitrendipine 2.5 mg/kg s.c. daily from day 0, day 16 p.t.): 1.7 points
- amelioration of clinical impairment (disability score) vs vehicle ([2]; nitrendipine 2.5 mg/kg s.c. daily from day 0, day 17 p.t.): 1.9 points
- amelioration of clinical impairment (disability score) vs vehicle ([2]; nitrendipine 2.5 mg/kg s.c. daily from day 0, day 18 p.t.): 2.25 points
- amelioration of clinical impairment (disability score) vs vehicle ([2]; nitrendipine 2.5 mg/kg s.c. daily from day 0, day 19 p.t.): 1.65 points
- amelioration of clinical impairment (disability score) vs vehicle ([2]; nitrendipine 2.5 mg/kg s.c. daily from day 0, day 20 p.t.): 1.6 points
